The values below come from patent US20240254124A1, “AZAINDOLE ROCK INHIBITORS” (priority 2022, published 2024).

Series [1] can be described thus: 24 hour rat pharmacokinetics. The conditions noted are these: male.
Series [2] in a line: 24 hour mouse pharmacokinetics. The format is in vivo, B6SJLF1/J mice. As to the method:
Groups 2, 3, 4, 6, and 8: Test article was dissolved in a minimal amount of DMSO (Groups 2, 4, 6, 8: 40-50 μL, Group 3: 100 μL), 0.5% methylcellulose was added to final volume, then solution was sonicated for 2 minutes.
Group 7: Test article was dissolved in 100 μL DMSO, saline was added to final volume, then solution was sonicated for 2 minutes.
Groups 1, 5: The test article was administered as a single dose via slow bolus intravenous administration into a lateral tail vein, with a 27G needle.
Groups 2, 4, 6, 7, 8: The test article was administered as a single dose directly to the stomach by oral gavage.
Group 3: The test article was administered as a single dose in two parts with an approximate 1-2-minute rest between due to volume administered.
Approximately 150 μL of blood was collected by tail nick for the first time point and then the maximal volume by cardiac stick for the second, terminal time point in each mouse. The plasma was spun and separated within 30 minutes of collection and stored frozen at −20° C. until shipment.
Prior to the terminal blood collection, CSF was collected. […] The resulting data is shown in Tables 13, 14, 15, 16 and 17 below.

A further series concerns the target hERG (Homo sapiens (Human), UniProt Q12809). The series can be described thus: biochemical.
A further series deals with ROCK2 (Homo sapiens (Human), UniProt O75116). Nature of the series: ROCK2 inhibition assay (HotSpot, 33P-ATP). The format is biochemical.
The target of another series is ROCK1 (Homo sapiens (Human), UniProt Q13464). The series can be described thus: ROCK1 inhibition assay (HotSpot, 33P-ATP). The conditions noted are these: Table 2A; 10 μM ATP. Type of series: biochemical.
In a further series the target is PRKX (Homo sapiens (Human), UniProt P51817). Nature of the series: PRKX inhibition assay (HotSpot, 33P-ATP). The conditions noted are these: Table 2B; 10 μM ATP; Compound 1 is geometric mean of multiple experiments. Type of series: biochemical. As to the method:
(§1) Compounds as a powder were dissolved in dimethyl sulfoxide to make a 10 mM stock. […] The HotSpot kit employing ^33P-ATP was used with reactions conducted at 10 μM ATP for each tested enzyme. The percent activity relative to DMSO controls for each concentration was then fitted to a curve using GraphPad Prism to determine the IC50. […] Each experiment was run in the same lab with this procedure.

A further series concerns the target PKA (Homo sapiens (Human), UniProt P17612). Nature of the series: PKA inhibition assay (HotSpot, 33P-ATP). The conditions noted are these: Table 2B; 10 μM ATP; Compound 1 is geometric mean of multiple experiments. Type of series: biochemical. As to the method: as §1

Sequence of ROCK2 (O75116 whole entry): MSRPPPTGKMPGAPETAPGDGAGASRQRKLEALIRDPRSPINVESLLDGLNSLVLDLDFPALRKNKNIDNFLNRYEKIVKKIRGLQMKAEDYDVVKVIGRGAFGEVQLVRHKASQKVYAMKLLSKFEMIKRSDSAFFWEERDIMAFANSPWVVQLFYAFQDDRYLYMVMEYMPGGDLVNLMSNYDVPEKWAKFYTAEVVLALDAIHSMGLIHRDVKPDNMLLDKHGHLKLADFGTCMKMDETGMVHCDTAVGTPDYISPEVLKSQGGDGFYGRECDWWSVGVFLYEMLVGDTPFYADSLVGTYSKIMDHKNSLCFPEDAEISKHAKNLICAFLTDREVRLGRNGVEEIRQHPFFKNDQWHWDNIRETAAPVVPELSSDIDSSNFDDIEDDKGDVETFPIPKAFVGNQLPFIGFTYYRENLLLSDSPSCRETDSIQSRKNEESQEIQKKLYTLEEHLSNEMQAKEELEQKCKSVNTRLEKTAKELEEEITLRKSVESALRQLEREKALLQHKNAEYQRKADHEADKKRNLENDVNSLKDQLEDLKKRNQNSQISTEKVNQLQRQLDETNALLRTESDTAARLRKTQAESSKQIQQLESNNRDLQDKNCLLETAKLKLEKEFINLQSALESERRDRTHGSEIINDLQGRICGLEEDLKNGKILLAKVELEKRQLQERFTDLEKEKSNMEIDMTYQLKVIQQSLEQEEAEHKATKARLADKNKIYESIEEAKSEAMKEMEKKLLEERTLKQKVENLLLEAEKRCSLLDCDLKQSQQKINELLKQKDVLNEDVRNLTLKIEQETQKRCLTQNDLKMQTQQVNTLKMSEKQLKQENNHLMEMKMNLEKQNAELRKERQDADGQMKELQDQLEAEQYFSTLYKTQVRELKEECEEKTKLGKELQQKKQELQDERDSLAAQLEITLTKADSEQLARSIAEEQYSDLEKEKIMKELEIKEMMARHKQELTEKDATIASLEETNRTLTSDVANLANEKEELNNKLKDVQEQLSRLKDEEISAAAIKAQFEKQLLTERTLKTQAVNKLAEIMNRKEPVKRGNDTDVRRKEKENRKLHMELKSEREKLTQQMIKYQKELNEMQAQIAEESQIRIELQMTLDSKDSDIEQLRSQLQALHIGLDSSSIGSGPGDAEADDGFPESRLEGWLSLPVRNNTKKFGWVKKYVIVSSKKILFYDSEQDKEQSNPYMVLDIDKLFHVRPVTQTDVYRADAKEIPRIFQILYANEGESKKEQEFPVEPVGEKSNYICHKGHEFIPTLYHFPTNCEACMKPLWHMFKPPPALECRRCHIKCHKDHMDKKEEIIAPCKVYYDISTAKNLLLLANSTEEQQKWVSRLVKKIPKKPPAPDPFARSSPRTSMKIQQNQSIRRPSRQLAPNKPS
Sequence of hERG (Q12809 whole entry): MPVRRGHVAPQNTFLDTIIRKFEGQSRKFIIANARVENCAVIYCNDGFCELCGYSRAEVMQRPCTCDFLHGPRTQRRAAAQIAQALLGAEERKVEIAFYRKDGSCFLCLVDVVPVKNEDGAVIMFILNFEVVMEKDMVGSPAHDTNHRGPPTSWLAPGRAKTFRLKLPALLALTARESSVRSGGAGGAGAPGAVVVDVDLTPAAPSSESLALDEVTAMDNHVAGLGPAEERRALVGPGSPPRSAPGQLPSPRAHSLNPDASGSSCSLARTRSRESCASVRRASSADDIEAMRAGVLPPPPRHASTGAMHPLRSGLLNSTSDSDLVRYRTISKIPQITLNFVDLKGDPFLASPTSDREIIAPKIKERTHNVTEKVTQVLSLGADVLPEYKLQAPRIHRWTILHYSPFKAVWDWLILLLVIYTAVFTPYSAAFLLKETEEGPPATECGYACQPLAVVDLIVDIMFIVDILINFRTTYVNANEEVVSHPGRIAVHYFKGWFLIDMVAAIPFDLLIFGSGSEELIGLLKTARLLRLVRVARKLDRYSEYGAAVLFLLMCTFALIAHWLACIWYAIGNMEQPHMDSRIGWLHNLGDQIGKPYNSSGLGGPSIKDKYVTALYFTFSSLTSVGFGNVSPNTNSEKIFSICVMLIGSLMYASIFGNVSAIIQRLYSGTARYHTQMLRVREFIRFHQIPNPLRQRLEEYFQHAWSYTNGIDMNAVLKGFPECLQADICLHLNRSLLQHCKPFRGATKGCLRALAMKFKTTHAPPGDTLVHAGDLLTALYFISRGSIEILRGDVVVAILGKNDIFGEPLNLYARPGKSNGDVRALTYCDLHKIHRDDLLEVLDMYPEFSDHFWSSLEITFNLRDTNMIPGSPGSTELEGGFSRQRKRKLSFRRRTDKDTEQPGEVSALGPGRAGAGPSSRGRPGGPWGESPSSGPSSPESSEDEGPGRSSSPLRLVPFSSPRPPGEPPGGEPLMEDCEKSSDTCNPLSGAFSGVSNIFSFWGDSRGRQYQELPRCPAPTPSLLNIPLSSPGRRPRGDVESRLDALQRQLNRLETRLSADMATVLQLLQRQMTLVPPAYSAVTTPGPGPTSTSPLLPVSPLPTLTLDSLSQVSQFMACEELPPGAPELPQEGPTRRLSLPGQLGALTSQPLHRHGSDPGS
Sequence of PRKX (P51817 whole entry): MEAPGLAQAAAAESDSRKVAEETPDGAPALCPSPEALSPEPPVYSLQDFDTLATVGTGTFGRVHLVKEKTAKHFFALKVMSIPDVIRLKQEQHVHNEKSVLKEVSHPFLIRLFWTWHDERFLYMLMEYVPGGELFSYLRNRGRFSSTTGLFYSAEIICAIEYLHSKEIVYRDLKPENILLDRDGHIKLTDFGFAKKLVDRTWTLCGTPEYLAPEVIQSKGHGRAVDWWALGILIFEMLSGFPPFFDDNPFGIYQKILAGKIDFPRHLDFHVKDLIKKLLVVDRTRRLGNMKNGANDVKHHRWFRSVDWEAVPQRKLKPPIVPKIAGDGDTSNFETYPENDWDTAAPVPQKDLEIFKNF
Sequence of ROCK1 (Q13464 whole entry): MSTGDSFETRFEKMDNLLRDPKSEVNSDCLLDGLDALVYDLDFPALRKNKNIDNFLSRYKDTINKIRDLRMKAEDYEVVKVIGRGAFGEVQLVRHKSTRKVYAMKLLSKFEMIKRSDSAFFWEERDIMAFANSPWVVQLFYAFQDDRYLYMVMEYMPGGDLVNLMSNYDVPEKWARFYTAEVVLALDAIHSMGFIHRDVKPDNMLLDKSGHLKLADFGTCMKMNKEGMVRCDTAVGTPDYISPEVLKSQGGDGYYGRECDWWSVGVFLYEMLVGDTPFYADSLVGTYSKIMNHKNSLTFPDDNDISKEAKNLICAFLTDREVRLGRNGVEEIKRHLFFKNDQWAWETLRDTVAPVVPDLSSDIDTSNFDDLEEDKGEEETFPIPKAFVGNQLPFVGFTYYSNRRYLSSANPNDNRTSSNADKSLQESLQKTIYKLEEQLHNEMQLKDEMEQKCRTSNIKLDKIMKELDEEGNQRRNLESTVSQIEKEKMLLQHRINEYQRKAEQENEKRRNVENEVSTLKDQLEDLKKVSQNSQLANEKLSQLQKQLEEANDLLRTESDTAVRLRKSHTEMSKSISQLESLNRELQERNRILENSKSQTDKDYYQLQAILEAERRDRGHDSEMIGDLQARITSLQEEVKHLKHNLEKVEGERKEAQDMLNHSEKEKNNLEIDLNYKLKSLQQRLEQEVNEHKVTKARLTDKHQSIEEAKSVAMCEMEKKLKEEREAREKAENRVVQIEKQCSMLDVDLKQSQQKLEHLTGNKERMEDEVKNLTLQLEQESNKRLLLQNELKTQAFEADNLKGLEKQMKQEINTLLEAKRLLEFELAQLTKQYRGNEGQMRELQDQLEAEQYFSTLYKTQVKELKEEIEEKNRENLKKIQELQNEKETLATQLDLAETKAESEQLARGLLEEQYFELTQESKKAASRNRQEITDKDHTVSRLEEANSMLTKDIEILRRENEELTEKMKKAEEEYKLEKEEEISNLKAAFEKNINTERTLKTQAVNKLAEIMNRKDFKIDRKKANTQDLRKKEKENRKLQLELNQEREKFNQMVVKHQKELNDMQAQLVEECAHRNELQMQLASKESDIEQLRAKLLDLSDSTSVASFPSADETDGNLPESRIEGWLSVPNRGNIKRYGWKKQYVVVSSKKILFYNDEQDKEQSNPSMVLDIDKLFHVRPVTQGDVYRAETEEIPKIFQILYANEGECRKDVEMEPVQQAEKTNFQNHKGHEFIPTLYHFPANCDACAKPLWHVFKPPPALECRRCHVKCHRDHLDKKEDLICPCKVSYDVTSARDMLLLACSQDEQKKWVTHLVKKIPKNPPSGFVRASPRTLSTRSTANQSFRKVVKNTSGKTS

As a reminder, the Kd is the equilibrium constant for the complex coming apart. Turning to `Cn1c(C(=O)NCc2ccccc2F)cc2ccc(-c3cn[nH]c3)nc21` [Compound 1, N-(2-fluorobenzyl)-1-methyl-6-(1H-pyrazol-4-yl)-1H-pyrrolo[2,3-b]pyridine-2-carboxamide], the AUC0-t/D in series [1] (IV 3 mg/kg) is recorded as 1541 (h * ng/ml)/(mg/kg); in series [1] (PO 10 mg/kg), 261 (h * ng/ml)/(mg/kg); in series [2] (IV 3 mg/kg, male), 3380 (h * ng/ml)/(mg/kg); in series [2] (PO 10 mg/kg, female), 567 (h * ng/ml)/(mg/kg); in series [2] (PO 10 mg/kg, male), 535 (h * ng/ml)/(mg/kg); in series [2] (PO 100 mg/kg, male), 441 (h * ng/ml)/(mg/kg). In addition, the “Ratio to 10 mg/kg Dose Level, AUC0-∞” value in series [2] (PO 100 mg/kg, male) was found to be 8.00. Also, the Kd at hERG was above 100000 nM. In addition, the “concentration required to inhibit half of ROCK2's activity, lower than Fasudil” value at ROCK2 (head-to-head against Fasudil) is reported as “more than 50 fold”.
As usually defined, the IC50 is the concentration that gives 50% inhibition. As to `Cc1[nH]ncc1-c1ccc2cc(C(=O)NCc3c(Cl)cccc3C3(O)CC3)[nH]c2n1` [Compound 6, N-(2-chloro-6-(1-hydroxycyclopropyl)benzyl)-6-(5-methyl-1H-pyrazol-4-yl)-1H-pyrrolo[2,3-b]pyridine-2-carboxamide], the half-maximal inhibitory concentration (IC50) against ROCK1 is 35.6 nM; against PRKX it was 32.3 nM; against ROCK2 (Table 2A, 10 μM ATP), 10.1 nM; on PKA it was 103 nM.
